Assay results reported in US12290513B2, “Therapeutic methods and compositions for treating movement disorders” (Vima Therapeutics, Inc., priority 2023, dated 2025).

Assays:
[1] = test system: Cerep87 Safety Panel receptors; test: Cerep87 Safety Panel (Eurofins), whole panel statements; format: binding; settings: all receptors of the Cerep87 panel
[2] = molecular target: T1, human muscarinic receptor M5 (Homo sapiens, UniProt P08912); test: Calcium flux assay (FLIPR), CHO cells expressing human M5; format: cell-based; settings: agonist mode
T1 construct: expressed in transfected cells
T1 sequence (P08912 whole entry): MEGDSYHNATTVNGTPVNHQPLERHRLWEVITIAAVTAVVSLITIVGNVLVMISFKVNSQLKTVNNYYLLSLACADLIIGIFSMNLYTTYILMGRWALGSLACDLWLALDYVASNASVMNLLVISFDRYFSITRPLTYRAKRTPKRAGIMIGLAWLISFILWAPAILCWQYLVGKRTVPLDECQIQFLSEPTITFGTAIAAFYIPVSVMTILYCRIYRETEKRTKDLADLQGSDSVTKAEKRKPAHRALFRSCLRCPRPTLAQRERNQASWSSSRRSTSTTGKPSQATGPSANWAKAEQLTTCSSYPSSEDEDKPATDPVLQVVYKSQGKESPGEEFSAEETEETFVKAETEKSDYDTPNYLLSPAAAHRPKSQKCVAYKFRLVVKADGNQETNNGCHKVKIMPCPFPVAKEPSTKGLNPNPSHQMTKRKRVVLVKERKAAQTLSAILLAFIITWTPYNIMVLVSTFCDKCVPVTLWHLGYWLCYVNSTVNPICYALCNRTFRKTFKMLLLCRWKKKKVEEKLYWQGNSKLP
Procedure: (§1) All cells used in the following experiments were clonal populations of Chinese Hamster Ovary (CHO) cells stably expressing the corresponding human muscarinic receptor, except for the M4 cell line, which was a population of CHO cells transiently transfected with the human M4 receptor. Muscarinic agonism and antagonism of each receptor was measured by a quantitative calcium flux assay that is used for multiple classes of G-protein-coupled receptors, or GPCRs, as described elsewhere (e.g., Arkin et al., […], PMID: 22553878). Acetylcholine and atropine were used as positive controls for receptor agonism and antagonism, respectively. The procedure was as follows: • 1. Cells were thawed and cultured in cell culture medium (DMEM/F12 containing 10% FBS, 1× penicillin-streptomycin and 600 μg/ml hygromycin B) at 37° C. in 5% (v/v) CO2. • 2. One day before the assays, cells were detached using TrypLE™ and counted using a cell-counter. Only cells with >85% viability are used for the assay. • 3. […] Plates were read for 160 sec with 1 sec intervals to obtain the data in agonist mode, then kept at 25° C. in the dark for 30 min. • 11. […] Plates were read for 160 sec with 1 sec intervals, thereby measuring the ability for test compounds to antagonize the activation of muscarinic receptors by Ach.

human M4 receptor = molecular target: T2, human M4 receptor (Homo sapiens, UniProt P08173); test: Calcium flux assay (FLIPR), CHO cells transiently transfected with human M4; format: cell-based; settings: agonist mode
T2 construct: expressed in transfected cells; host or cells: CHO (transient transfection)
T2 sequence (P08173 whole entry): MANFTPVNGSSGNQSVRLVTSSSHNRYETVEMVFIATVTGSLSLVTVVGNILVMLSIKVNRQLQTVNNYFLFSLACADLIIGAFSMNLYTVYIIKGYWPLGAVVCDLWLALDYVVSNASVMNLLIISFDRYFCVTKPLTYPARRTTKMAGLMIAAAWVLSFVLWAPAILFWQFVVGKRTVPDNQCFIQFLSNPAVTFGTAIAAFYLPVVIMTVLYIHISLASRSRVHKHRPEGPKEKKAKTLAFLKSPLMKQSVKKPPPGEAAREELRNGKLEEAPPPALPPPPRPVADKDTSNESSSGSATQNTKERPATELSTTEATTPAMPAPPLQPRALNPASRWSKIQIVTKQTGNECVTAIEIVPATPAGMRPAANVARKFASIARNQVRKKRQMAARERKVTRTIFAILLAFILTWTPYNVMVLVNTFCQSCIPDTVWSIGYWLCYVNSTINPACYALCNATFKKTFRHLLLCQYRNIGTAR
Procedure: All cells used in the following experiments were clonal populations of Chinese Hamster Ovary (CHO) cells stably expressing the corresponding human muscarinic receptor, except for the M4 cell line, which was a population of CHO cells transiently transfected with the human M4 receptor. […] The procedure was as follows: • 1. Cells were thawed and cultured in cell culture medium (DMEM/F12 containing 10% FBS, 1× penicillin-streptomycin and 600 μg/ml hygromycin B) at 37° C. in 5% (v/v) CO2. • 2. One day before the assays, cells were detached using TrypLE™ and counted using a cell-counter. […] 12,000 cells/well were seeded in 30 μl/well culture medium in a 384-well cell plate and incubated overnight at 37C, 5% (v/v) CO2. • 4. On the assay day, 2× dye solution was prepared following the manual of the FLIPR® Calcium 6 Assay Kit: • i. The dye was diluted with assay buffer (20 mM HEPES in 1× HBSS, PH 7.4); • ii. Probenecid was added to a final concentration of 5 mM; • iii. Cells were vortexed vigorously for 1-2 minutes. • 5. Medium was removed from the cell plate by flicking the cell plate on paper towels. • 6. 10 μl of assay buffer and 10 μl of 2× dye solution was added to each well of the cell plate. • 7. […] Plates were read for 160 sec with 1 sec intervals to obtain the data in agonist mode, then kept at 25° C. in the dark for 30 min. • 11.

[3] = molecular target: T3, human muscarinic receptor M2 (Homo sapiens, UniProt P08172); test: Calcium flux assay (FLIPR), CHO cells expressing human M2; format: cell-based; settings: agonist mode
T3 construct: expressed in transfected cells
T3 sequence (P08172 whole entry): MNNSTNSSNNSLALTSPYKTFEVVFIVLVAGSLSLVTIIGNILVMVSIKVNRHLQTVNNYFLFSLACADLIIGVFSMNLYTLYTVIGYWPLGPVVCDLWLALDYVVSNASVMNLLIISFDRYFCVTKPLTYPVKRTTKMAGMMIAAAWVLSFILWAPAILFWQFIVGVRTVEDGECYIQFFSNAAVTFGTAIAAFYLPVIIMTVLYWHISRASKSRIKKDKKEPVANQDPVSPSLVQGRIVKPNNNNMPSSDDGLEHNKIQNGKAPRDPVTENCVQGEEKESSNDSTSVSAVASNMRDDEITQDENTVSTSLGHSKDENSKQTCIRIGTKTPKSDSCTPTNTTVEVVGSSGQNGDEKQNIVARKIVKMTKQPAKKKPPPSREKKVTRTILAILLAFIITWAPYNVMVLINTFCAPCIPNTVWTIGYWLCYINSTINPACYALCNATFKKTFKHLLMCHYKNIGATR
Procedure: as §1

[4] = molecular target: human muscarinic receptor M3 (Homo sapiens, UniProt P20309); test: cell-based
Chain of human muscarinic receptor M3 (P20309 whole entry): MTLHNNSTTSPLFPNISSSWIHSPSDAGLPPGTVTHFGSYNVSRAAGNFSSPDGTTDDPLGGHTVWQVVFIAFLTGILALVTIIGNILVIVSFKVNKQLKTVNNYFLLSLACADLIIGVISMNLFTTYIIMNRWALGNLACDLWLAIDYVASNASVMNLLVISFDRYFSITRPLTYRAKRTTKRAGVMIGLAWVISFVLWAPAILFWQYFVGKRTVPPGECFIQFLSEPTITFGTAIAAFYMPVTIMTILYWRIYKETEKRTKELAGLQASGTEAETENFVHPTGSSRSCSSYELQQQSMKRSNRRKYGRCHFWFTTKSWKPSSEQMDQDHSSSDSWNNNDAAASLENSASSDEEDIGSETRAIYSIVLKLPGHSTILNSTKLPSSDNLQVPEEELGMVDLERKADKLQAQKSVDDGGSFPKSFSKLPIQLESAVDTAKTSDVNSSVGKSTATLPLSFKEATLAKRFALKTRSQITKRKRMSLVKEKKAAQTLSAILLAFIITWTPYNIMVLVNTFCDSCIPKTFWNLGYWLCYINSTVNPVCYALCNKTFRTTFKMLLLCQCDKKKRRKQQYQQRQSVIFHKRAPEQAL
Procedure: (§2) All cells used in the following experiments were clonal populations of Chinese Hamster Ovary (CHO) cells stably expressing the corresponding human muscarinic receptor, except for the M4 cell line, which was a population of CHO cells transiently transfected with the human M4 receptor. […] The procedure was as follows: • 1. Cells were thawed and cultured in cell culture medium (DMEM/F12 containing 10% FBS, 1× penicillin-streptomycin and 600 μg/ml hygromycin B) at 37° C. in 5% (v/v) CO2. • 2. One day before the assays, cells were detached using TrypLE™ and counted using a cell-counter. […] 12,000 cells/well were seeded in 30 μl/well culture medium in a 384-well cell plate and incubated overnight at 37C, 5% (v/v) CO2. • 4. On the assay day, 2× dye solution was prepared following the manual of the FLIPR® Calcium 6 Assay Kit: • i. The dye was diluted with assay buffer (20 mM HEPES in 1× HBSS, PH 7.4); • ii. Probenecid was added to a final concentration of 5 mM; • iii. […] were vortexed vigorously for 1-2 minutes. • 5. Medium was removed from the cell plate by flicking the cell plate on paper towels. • 6. 10 μl of assay buffer and 10 μl of 2× dye solution was added to each well of the cell plate. • 7. The cell plate was shaken on a plate shaker at 600 rpm for 2 minutes and incubated at 37° C. for 2 hours followed by an additional 15-minute incubation at 25° C. • 8. The test compounds were next prepared in assay buffer: • a. All compounds were diluted to the required concentration with DMSO and added to a 384-well compound plate; • b. All compounds were serially diluted; • 1. Starting with 10 mM concentration of each test compound, all samples were serially diluted in 3-fold dilutions. • 2. 90 nl/well of each compound was transferred from the source plate to a 384-well compound plate using an Echo liquid handler. • 3. 30 μl/well assay buffer was added to the compound plate; • c. The plates were mixed on a plate shaker for 2 mins; • 9. The cell plate, compound plate and pipette tips were placed in the FLIPR screening system and 10 μl of each compound was added to a well of the cell plate. • 10. Plates were read for 160 sec with 1 sec intervals to obtain the data in agonist mode, then kept at 25° C. in the dark for 30 min. • 11.

[5] = molecular target: human muscarinic receptor M1 (Homo sapiens, UniProt P11229); test: cell-based
Chain of human muscarinic receptor M1 (P11229 whole entry): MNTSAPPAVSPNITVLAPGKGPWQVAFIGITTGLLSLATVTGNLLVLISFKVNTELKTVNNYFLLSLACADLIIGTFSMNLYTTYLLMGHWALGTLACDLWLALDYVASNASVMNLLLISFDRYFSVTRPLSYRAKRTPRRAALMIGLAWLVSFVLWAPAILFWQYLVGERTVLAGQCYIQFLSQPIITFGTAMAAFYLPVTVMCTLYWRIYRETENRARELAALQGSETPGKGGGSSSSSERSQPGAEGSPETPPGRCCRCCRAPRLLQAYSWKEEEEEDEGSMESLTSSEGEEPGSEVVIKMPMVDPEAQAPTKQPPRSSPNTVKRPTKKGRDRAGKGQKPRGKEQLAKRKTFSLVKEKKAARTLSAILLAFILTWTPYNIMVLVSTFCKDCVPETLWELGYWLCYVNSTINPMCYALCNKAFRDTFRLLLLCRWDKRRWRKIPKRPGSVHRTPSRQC
Procedure: as §2

tear production = test: THP-induced dry eye in dogs: tear production; format: in vivo, Beagles; settings: oral, 2 mpk alone, 4 hours post administration
dizziness = settings: humans; 3 mg THP immediate release at 0, 2, 4 hours versus 9 mg at once
Procedure: Experimental Design: All of the data collected in this example were run in a double-blind, randomized, placebo controlled setting of normal healthy adults. […] Dizziness was measured by the visual analog scale (VAS), a common clinical measure of dizziness.

SMILES | signal at any receptor of the panel [1] [%] | EC50 [2] [µM] | EC50 (human M4 receptor) [µM] | EC50 [3] [µM] | EC50 [4] [µM] | EC50 [5] [µM] | % Baseline tear production (tear production) [%] | dizziness (VAS) (dizziness)
C[C@H](C[N+](C)(C)C)OC(N)=O.[Cl-] [(R)-BTC, (R)-bethanechol, reference compound] | < 50 | > 10 | > 10 | > 10 | 7.57 | > 10 |  | 
OC(CCN1CCCCC1)(c1ccccc1)C1CCCCC1 (centres unmarked) [THP, trihexyphenidyl] |  |  |  |  |  |  | 89.1 | significantly reduced dizziness
